Measurements: US20240279687A1, “PEPTIDE NUCLEIC ACIDS FOR SPATIOTEMPORAL CONTROL OF CRISPR-CAS BINDING” (Yale University, priority 2021, published 2024)
{Lys} = L-lysine residue attached to the PNA terminus

Legend:
[1] = test system: 20mer RNA oligonucleotide (spacer sequence designed to target the BFP gene); assay: UV spectroscopy thermal melting analysis of duplexes; assay type: binding; conditions: 1 μM each strand, 10 mM sodium phosphate buffer pH 7.4
Description: All samples were prepared by mixing a stoichiometric amount of each strand (1 μM) in 10 mM sodium phosphate buffer at pH 7.4 (Table 8). The samples were pre-annealed at 95° C. for 5 mins and gradually cooled to room temperature prior to the melting experiment. UV melting experiments were performed using a Shimadzu UV-3600 Plus UV-Vis-NIR spectrophotometer equipped with a thermoelectrically controlled multicell holder. UV melting spectra were recorded after every 1° C. temperature change by monitoring the absorbance at 260 nm from 20° C. to 110° C. to 20° C., with a heating/cooling ramp rate of 1.0° C./min. The heating and cooling curves were overlapped to confirm reversible denaturation. All spectra were plotted on Origin 2020 and smoothed using a 20-point adjacent averaging algorithm. The first derivative plots of the melting curves were generated to determine the melting temperature for each duplex.

[2] = test system: Cas9 RNP using a sgRNA targeted to the BFP gene; assay: Cas9 RNP editing of BFP reporter gene in K562-BFP cells (BFP fluorescent drop out, flow cytometry); assay type: cell-based, human; conditions: for inhibitory effect on Cas9-mediated BFP gene disruption and indel formation: 0-250 pmol nucleofected 2 hours prior to Cas9 RNP
Description: (§1) For Cas9 RNP assembly, 50 pmol of sgRNA (IDT, Alt-R CRISPR-Cas9 sgRNA) and 45 pmol of SpCas9 (CPO2, PNA BIO) were incubated at room temperature for 10 minutes in a 5 μL reaction in 1×3.1 Buffer (B7203S, NEB). For nucleofections, 1×10^6 cells, 5 μL Cas9 RNP, and 1 μL of Alt-R Cas9 electroporation enhancer (IDT) were resuspended in 100 μL of Lonza cell line solution (V4XC-2024/V4XC-1024, Lonza) and nucleofected using a Lonza 4D-Nucleofector X unit. Cas9 RNP treated cells were seeded in 2 mL of complete media and incubated for 96 hours prior to harvesting for analysis.
(§2) For PNA pre-treatments, 1×10^6 cells and 1 μL of PNA diluted to desired concentration in water were similarly nucleofected using Lonza cell line kits and 4D-Nucleofector. PNA nucleofected cells were resuspended in 1.25 mL of complete media in 1.5 mL tubes and incubated at 37° C. for 2 hours before Cas9 RNP nucleofection as described above. After Cas9 RNP nucleofection cells were seeded in 2 mL of complete media and incubated for 96 hours prior to harvesting and analysis.
K562 cells were spun down and resuspended in fresh complete media at 300,000 cells/mL 48 hours prior to analysis. Samples for flow cytometry were fixed in complete media with 1% formaldehyde for 15 minutes before spinning down, resuspending in 300 μL PBS, and filtering through a cell strainer capped tube. Samples were analyzed for BFP and GFP fluorescence using a Cytoflex LX instrument (Beckman Coulter) using PacificBlue and FITC lasers, respectively, and quantification and gating was done using FloJo v10 software. Background fluorescent drop out was determined by measurement of mock nucleofected lines in quadruplicate and subtracted from experimental values to determine reported editing frequency.
10^6 stable BFP-expressing K562 cells were nucleofected (Lonza 4D Nucleofector) with a specified dose of PNA or ssDNA oligo (0-250 pmol). Two hours later, all conditions were nucleofected with 45 pmol of purified Cas9 RNP using a sgRNA targeted to the BFP gene. 72 hours later, cells with BFP fluorescent drop out (via Cas9 indel formation) were quantified by flow cytometry (Beckman Coulter—Cytoflex instrument).
In time-course experiments in FIG. 3D, K562 samples were nucleofected with 5 μL RNP reactions with the addition of 100 pmol of ssODN donor in 1 μL of water. RNP nucleofected samples were incubated at 37° C. in complete media before being spun down and nucleofected with 250 pmol of PNA at specified time points. After PNA delivery cells were seeded in 2 mL of complete media and incubated for 96 hours prior to harvesting and analysis.
10^6 stable BFP-expressing K562 cells were nucleofected (Lonza 4D Nucleofector) with specified dose (0-250 pmol, or 250 pmol if unspecified) of specified PNA with sequences homologous to (antispacer) or identical to (cis-spacer) the BFP gRNA spacer sequence. Two hours later, all conditions were nucleofected with 45 pmol of purified Cas9 RNP using a sgRNA targeted to the BFP gene. 72 hours later, cells with BFP fluorescent drop out (via Cas9 indel formation) were quantified by flow cytometry (Beckman Coulter—Cytoflex instrument).
10^6 stable BFP-expressing K562 cells were nucleofected (Lonza 4D Nucleofector) with 45 pmol of purified Cas9 RNP using a sgRNA targeted to the BFP gene. At each specified time point 250 pmol of BFP Anti-protospacer PNA were introduced via nucleofection. For “Cas9 only” condition there was no second PNA nucleofection and for “0 hrs” 250 pmol of PNA was co-nucleofected with Cas9 in a single reaction. After each nucleofection samples were left in fresh media for the duration of the experiment to acquire edits. 72 hours after the “24 hrs” nucleofection, cells for all conditions with BFP fluorescent drop out (via Cas9 indel formation) were quantified by flow cytometry (Beckman Coulter—Cytoflex instrument).

[3] = test system: Cas9 RNP, ZSCAN2 sgRNA, ZSCAN2 ON site; assay: ZSCAN2 on-target editing in K562 cells (amplicon sequencing); assay type: cell-based, human; conditions: PNA pre-treatment 2 hours before Cas9 RNP (FIG. 10A: 50 pmol PNA)
Description: as §1
(§3) For PNA pre-treatments, 1×10^6 cells and 1 μL of PNA diluted to desired concentration in water were similarly nucleofected using Lonza cell line kits and 4D-Nucleofector. PNA nucleofected cells were resuspended in 1.25 mL of complete media in 1.5 mL tubes and incubated at 37° C. for 2 hours before Cas9 RNP nucleofection as described above. […]
(§4) Genomic DNA was purified from 0.5×10^6 cells using Promega ReliaPrep gDNA Tissue Miniprep System (A2052) and eluted in 50 μL of water. […] FASTQ reads were subjected to quality analysis (Basespace FASTQC) and analyzed for indel frequency using Cas-Analyzer assessment tool (parameters: Comparison range (R)—both ends of full amplicon sequence, Minimum frequency (n)=1). gRNAs used in this study are listed in Table 8, amplicon genomic coordinates listed in Table 9.

[4] = test system: Cas9 RNP, ZSCAN2 sgRNA, ZSCAN2 off-target site; assay: ZSCAN2 off-target editing in K562 cells (amplicon sequencing); assay type: cell-based, human; conditions: PNA pre-treatment 2 hours before Cas9 RNP (FIG. 10A: 50 pmol PNA)
Description: as §1, §3, §4

[5] = test system: Cas9 RNP (FANCF, EMX1, ZSCAN2, CCR5, VEGFA gRNAs); assay: On-target specificity of Cas9 RNP (ratio of on-target to off-target editing rates); assay type: cell-based, human
Description: as §2
(§5) Genomic DNA was purified from 0.5×10^6 cells using Promega ReliaPrep gDNA Tissue Miniprep System (A2052) and eluted in 50 μL of water. Library prep used 100 ng of gDNA input with Ampliseq for Illumina Library Plus kit (20019101, Illumina) and used a custom primer pool designed to amplify a designed panel of genomic targets of interest (Table 9). Libraries were indexed, pooled, and loaded onto a Mid-output (300-cycles, Illumina, FC-420-1004) cartridge for paired-end sequencing on an Illumina Miniseq instrument. FASTQ reads were subjected to quality analysis (Basespace FASTQC) and analyzed for indel frequency using Cas-Analyzer assessment tool (parameters: Comparison range (R)—both ends of full amplicon sequence, Minimum frequency (n)=1). gRNAs used in this study are listed in Table 8, amplicon genomic coordinates listed in Table 9.
In the case of EMX1 ON and OFF target amplicons, both regions were amplified from 200 ng of purified gDNA by Phusion High-Fidelity Polymerase (NEB, M0530S) and pooled and purified using QIAGEN PCR purification kit (28104, Qiagen). Library prep used 200 ng of purified amplicon input with Illumina DNA Prep kit (20025519, Illumina). EMX1 libraries were similarly indexed, pooled, sequenced, and analysed as above.
For pre-annealed PAM-distal PNA experiments, 50 pmol of sgRNA and 50 pmol of PAM-distal 10mer PNAs were incubated in a thermocycler at 37° C. for 30 minutes in a 5 μL reaction in 1×3.1 Buffer (B7203S, NEB) to allow annealing. PNA annealing to sgRNAs was confirmed by gel shift on 5% polyacrylamide gel. 45 pmol of SpCas9 (CP02, PNA BIO) was then added at room temperature and incubated for 10 minutes to allow RNP formation. Resulting reaction was delivered to 1×10^6 K562 cells by a single nucleofection and treated as described above.

[6] = test system: Cas9 RNP, FANCF sgRNA, FANCF ON site; assay: FANCF on-target editing in K562 cells (amplicon sequencing); assay type: cell-based, human
Description: For Cas9 RNP assembly, 50 pmol of sgRNA (IDT, Alt-R CRISPR-Cas9 sgRNA) and 45 pmol of SpCas9 (CPO2, PNA BIO) were incubated at room temperature for 10 minutes in a 5 μL reaction in 1×3.1 Buffer (B7203S, NEB). For nucleofections, 1×10^6 cells, 5 μL Cas9 RNP, and 1 μL of Alt-R Cas9 electroporation enhancer (IDT) were resuspended in 100 μL of Lonza cell line solution (V4XC-2024/V4XC-1024, Lonza) and nucleofected using a Lonza 4D-Nucleofector X unit. Cas9 RNP treated cells were seeded in 2 mL of complete media and incubated for 96 hours prior to harvesting for analysis. […]
as §4
(§6) 10^6 K562 cells were nucleofected (Lonza 4D Nucleofector) with specified dose (0-150 pmol) of FANCF PAM-distal 10mer PNA. […] Sequencing data was analyzed for indel frequency using a validated Cas-Analyzer tool (Park, et al., Bioinformatics 33, 286-288 (2017)).

[7] = test system: Cas9 RNP, FANCF sgRNA, FANCF OT1 site; assay: FANCF off-target editing in K562 cells (amplicon sequencing); assay type: cell-based, human
Description: as §1, §2
as §5, with “Libraries were indexed, pooled, and loaded onto a Mid-output (300-cycles, Illumina, FC-420-1004) cartridge for paired-end sequencing on an Illumina Miniseq instrument.” left out
as §6

[8] = test system: HBB sgRNA and HBB Cas9 RNP; assay: sgRNA binding assay (EMSA) with TAMRA dye-labeled PNA, HBB target; conditions: heterologous spacer sequence (HBB target)
Description: (§7) 10 pmol of BFP or HBB sgRNA were incubated with or without 10 pmol of purified Cas9 (Sigma) in 20 μL of 1×NEB buffer 3.1 for 15 minutes at room temp. Then, specified doses of a TAMRA dye labeled antispacer BFP ssPNA was added to each reaction and tubes were incubated in thermocycler for 30 minutes at 37C. 5 μL of resulting reactions were run on pre-cast 5% polyacrylamide TBE gels (BIORAD). The gel was washed in 1×TBE buffer and imaged for TAMRA signal using a Gel Doc XR+ gel imager system (BIORAD). Gel was then incubated in 1×SYBR Gold in TBE for 5 minutes, washed in 1×TBE, and imaged for nucleic acid staining on Gel Doc XR+ imager. Resulting images were superimposed using ImageJ.

[9] = test system: BFP sgRNA and BFP Cas9 RNP; assay: sgRNA binding assay (EMSA) with TAMRA dye-labeled PNA, BFP target
Description: as §7

[10] = test system: Cas9 RNP, CCR5 R30 sgRNA, CCR5 ON site; assay: CCR5 on-target editing in K562 cells (amplicon sequencing); assay type: cell-based, human; conditions: PNA pre-treatment 2 hours before Cas9 RNP (FIG. 10A: 50 pmol PNA)
Description: as §1, §3, §4

[11] = test system: Cas9 RNP, CCR5 R30 sgRNA, CCR2 off-target site; assay: CCR5 gRNA off-target editing in the CCR2 gene in K562 cells (amplicon sequencing); assay type: cell-based, human; conditions: PNA pre-treatment 2 hours before Cas9 RNP (FIG. 10A: 50 pmol PNA)
Description: as §1, §3, §4

## ATGGCGTGCAGTGCTTCAGC (KKK-ATGGCGTGCAGTGCTTCAGC-KKK; as printed in the source, key not given here) [Anti-protospacer ssDNA oligo, reference compound]
[1]
  Tm of duplex with RNA spacer sequence: 56 °C
[2]
  inhibitory effect on Cas9-mediated BFP gene disruption and indel formation: entirely ineffective
[2]; listed as antispacer DNA
  inhibitory effect on Cas9-mediated BFP gene disruption and indel formation: no effect

## CTTGCCGCAC (all peptide nucleic acid (PNA); further chemistry not fully specified) [ZSCAN PAMdist 10 mer PNA, 1 Lysine (K) on either end]
[3]
  decrease of on-target editing: 80.3%
[4]
  decrease of off-target editing: 66.3%
[5]; K562 cells, PNA pre-treatment
  overall increase in specificity: not observed

## K-CTTCTGCAGC-K (all peptide nucleic acid (PNA), 5' {Lys}, 3' {Lys}) [FANCF PAM-Distal 10 mer PNA]
[6]; 50 pmol PNA (98.0% without PNA)
  on-target editing: 93.2%
[6]; 50 pmol, 1:1 PNA:sgRNA ratio
  reduction of on-target editing: 4.9%
[7]; 50 pmol
  difference in editing reduction, off-target versus on-target: 11.6 fold
[7]; 50 pmol PNA (7.13% without PNA)
  off-target editing: 3.07%
[7]; 50 pmol, 1:1 PNA:sgRNA ratio, compared to Cas9 RNP only
  reduction of off-target editing: 57.1%
[5]; K562, HEK293, and U2OS cell lines, PNA pre-treatment prior to Cas9 RNP nucleofection
  specificity ratio versus Cas9 only: significantly increased specificity ratios
[5]; PNA pre-annealed to sgRNA prior to Cas9 RNP formation, delivered as a single complex, K562
  specificity versus pre-treatment approaches: further improved specificity

## KKK-ATGGCGTGCAGTGCTTCAGC-KKK (all peptide nucleic acid (PNA), 5' {Lys}-{Lys}-{Lys}, 3' {Lys}-{Lys}-{Lys}) [BFP Antispacer PNA]
[1]
  Tm of duplex with RNA spacer sequence: > 100 °C
[2]
  inhibitory effect on Cas9-mediated BFP gene disruption and indel formation: robust dose-dependent inhibitory effect
[2]; 250 pmol PNA at time-points up to 24 hours after Cas9 RNP/ssODN nucleofection
  block of indel formation (NHEJ) and template-mediated editing (HDR) when PNA is introduced after Cas9 RNP: rapidly and proportionally block both indel formation (NHEJ) and template-mediated editing (HDR)

## TAMRA-KKK-ATGGCGTGCAGTGCTTCAGC-KKK (all peptide nucleic acid (PNA); N-terminal TAMRA dye, three lysines flank each end) [TAMRA BFP Antispacer PNA, TAMRA dye conjugated at N-terminus]
[8]
  PNA-TAMRA signal co-localization with sgRNA and RNP bands: not
[9]; 10 pmol sgRNA, 10 pmol Cas9
  additional binding at 20 pmol (2×) doses compared to 10 pmol: no significant additional binding
  increase in PNA binding (TAMRA-Cas9 RNP gel bands) between 5 pmol (0.5×) and 10 pmol (1×) conditions: 2.09 fold
[9]; sequence-matched (BFP target)
  PNA-TAMRA signal co-localization with sgRNA and RNP bands: strongly co-localized

## TCCGCTCTAC (all peptide nucleic acid (PNA); further chemistry not fully specified) [CCR5 PAMdist 10 mer PNA, 1 Lysine (K) on either end]
[10]
  decrease of on-target editing: 79.1%
[11]
  off-target editing in the CCR2 gene: undetectable
